Measurements from publication PMC7601700, “Interaction of Cytochrome C Oxidase with Steroid Hormones” (Cells, 2020).
“Also recorded” adds a separate entry of the source. Where two headings read alike, the source gives them in different places.

Tests used:
[1] = molecular target: T1, cytochrome c oxidase (CcO) purified from bovine heart, heme a3 (Bos taurus, UniProt P00396+P68530); experiment: Absorption spectra of CcO (hormone-induced difference spectra); assay type: binding; details: for Spectral Response Induced in Oxidized CcO: air-oxidized CcO; for Magnitude ε of the spectral shift induced in oxidized CcO: estradiol: 1 mM hormone, pH 8.0, 437 minus 415 nm
T1 construct: Cytochrome oxidase was isolated from bovine heart mitochondria; from tissue; host or cells: bovine heart mitochondria
Method: Absorption spectra of CcO were recorded with a Cary 300 Bio spectrophotometer (Varian, Palo Alto, CA, USA) in semi-micro cuvettes with blackened walls and 10 mm light pathway (Hellma, Müllheim, Germany), in the basic medium at pH 8.0 supplemented with indicated different additions. The kinetics of spectral changes was monitored in a dual-wavelength mode in a SLM Aminco DW-2000 spectrophotometer.

[2] = molecular target: T2, cytochrome c oxidase (CcO) purified from bovine heart (Bos taurus, UniProt P00396+P68530); experiment: Peroxidase activity of CcO (o-dianisidine peroxidation by H2O2); assay type: biochemical; details: for Inhibition of CcO Peroxidase Activity: 0.2 mM o-dianisidine, 4 mM H2O2, 0.6 µM CcO
T2 construct: Cytochrome oxidase was isolated from bovine heart mitochondria; from tissue; host or cells: bovine heart mitochondria
Method: Peroxidase activity of CcO was assayed as described by Vygodina and Konstantinov by following spectrophotometrically peroxidation of 0.2 mM o-dianisidine at 432 nm minus 580 nm in a dual-wavelength SLM Aminco DW-2000 spectrophotometer (USA). The reaction mixture contained 0.6 µM CcO in the aerobic basic medium supplemented with different concentrations of DM. No o-dianisidine oxidase activity was observed and the peroxidase reaction was initiated by addition of 4 mM H2O2.

[3] = molecular target: T2, cytochrome c oxidase (CcO) purified from bovine heart; experiment: Cytochrome oxidase activity assay (oxygen uptake, Clark-type electrode; ascorbate + TMPD + cytochrome c); assay type: biochemical; details: for Inhibition of CcO Oxidase Activity, DM Influence: effect of dodecyl-maltoside on the inhibition; for Kd: X-axis intercept; for slope tangent of Ki(app) vs [DM], ratio Ki:Kc: ratio of the affinities of hormone and DM
Method: Cytochrome oxidase was isolated from bovine heart mitochondria using the modified method of Fowler et al. as described previously by Vygodina et al..
Cytochrome oxidase activity assay. Oxygen uptake rates were measured with a covered Clark-type electrode by an Oxytherm instrument (Hansatech, UK) in a thermostatted cell at 25 °C with permanent stirring. The assays were performed in a basic medium containing 50 mM Hepes, 50 mM Tris, pH 7.5 and 0.1 mM EDTA. The medium was also supplemented with indicated concentrations of DM which are given throughout the text in mM (0.05% ≈ 1.0 mM DM). 5 mM ascorbate, 0.1 mM TMPD and 10 µM cytochrome c were used as the oxidation substrate. Other details are indicated in the legends to figures.
In order to determine Ki(app), the titration curves in Figure 2B were approximated by Equation (2) that connects normalized activity, v, with testosterone concentration, [I].

[4] = molecular target: T2, cytochrome c oxidase (CcO) purified from bovine heart; set-up: method as in the paper is submitted for publication; details: from study on inhibition of CcO by Triton X-100; ref the paper is submitted for publication; read-out: affinity between DM and CcO, Kc; cited from earlier work
human endothelial cells = tested on: human endothelial cells; set-up: method as in PMID 17267145; details: read-out: IC50% for inhibition of cell growth; cited from earlier work
CcO from R. sphaeroides = tested on: CcO from R. sphaeroides; set-up: method as in PMID 24073649; details: cited from earlier work
R. sphaeroides CcO = R. sphaeroides CcO (Cereibacter sphaeroides, UniProt P33517+Q03736); experiment: Preliminary experiments on inhibition of R. sphaeroides CcO; assay type: biochemical, Rhodobacter sphaeroides
R. sphaeroides CcO, sequence (P33517 whole entry): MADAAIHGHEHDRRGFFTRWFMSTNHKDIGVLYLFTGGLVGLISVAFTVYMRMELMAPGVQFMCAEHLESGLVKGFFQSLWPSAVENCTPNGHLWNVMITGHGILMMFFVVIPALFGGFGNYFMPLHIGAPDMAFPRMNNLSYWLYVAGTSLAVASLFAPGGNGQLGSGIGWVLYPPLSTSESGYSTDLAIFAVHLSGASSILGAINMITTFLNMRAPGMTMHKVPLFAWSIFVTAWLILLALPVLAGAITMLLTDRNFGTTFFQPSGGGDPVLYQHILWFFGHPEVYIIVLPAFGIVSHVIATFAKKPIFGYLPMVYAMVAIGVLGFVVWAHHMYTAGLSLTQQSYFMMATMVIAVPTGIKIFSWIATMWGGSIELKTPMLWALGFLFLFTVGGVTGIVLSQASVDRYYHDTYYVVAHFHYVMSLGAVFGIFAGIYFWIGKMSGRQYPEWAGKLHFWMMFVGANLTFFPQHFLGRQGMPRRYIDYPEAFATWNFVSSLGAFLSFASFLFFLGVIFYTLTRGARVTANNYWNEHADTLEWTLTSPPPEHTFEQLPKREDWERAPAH
R. sphaeroides CcO, sequence (Q03736 26-290 limits assumed): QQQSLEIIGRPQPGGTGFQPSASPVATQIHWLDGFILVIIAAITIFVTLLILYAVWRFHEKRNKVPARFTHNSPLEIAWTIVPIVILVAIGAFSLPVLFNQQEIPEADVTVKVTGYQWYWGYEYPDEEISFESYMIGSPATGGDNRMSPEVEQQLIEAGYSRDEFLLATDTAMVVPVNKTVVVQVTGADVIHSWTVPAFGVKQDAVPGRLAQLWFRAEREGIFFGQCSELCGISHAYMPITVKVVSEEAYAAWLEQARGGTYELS

[5] = molecular target: T3, cytochrome c oxidase (CcO) purified from bovine heart, electron transfer from heme a to heme a3 (Bos taurus, UniProt P00396+P68530); experiment: Stopped-flow kinetics of CcO (heme a3) reduction by dithionite in the presence of RuAm; assay type: biochemical; details: for rate constant of heme a3 reduction, rapid phase: control 105.3; for rate constant of heme a3 reduction, slow phase: control 6.15
T3 construct: Cytochrome oxidase was isolated from bovine heart mitochondria; from tissue; host or cells: bovine heart mitochondria
Method: The kinetics of CcO reduction by dithionite in the presence of ruthenium hexammine (RuAm) was studied in an Applied Photophysics SX-20 stopped-flow spectrophotometer (UK) operated in a diode array mode, using a 20 µL cell with 1 cm optical pathway. The spectra in the 280–720 nm range were collected with a minimal interval of 1 ms. The assay medium contained 100 mM Hepes, 100 mM Tris, 50 mM KCl, 100 µM EGTA, catalase (2 µL/5 mL of the solution, indicated activity 23,000 units/mg protein), 0.05% DM, pH 8.0. Aerobic buffer with 6 µM CcO and 0.4 mM or 1 mM estradiol was rapidly mixed with the equal volume of the same buffer containing 40 mM sodium dithionite and 10 mM RuAm.
Procession of the stopped-flow data was performed with ProKineticist software provided with the Applied Photophysics SX-20 instrument, as well as by using Origin 7 and Origin 9 Microcal software.
We investigated effect of estradiol on the kinetics of electron transfer from heme a to heme a3. To this end, the kinetics of the hemes’ reduction by dithionite in the presence of RuAm was studied. In the experiment shown in Figure 4, 3 µM CcO was mixed rapidly with 20 mM dithionite and 5 mM RuAm and the reaction time course was followed by taking the spectra each ms in the 280–720 nm range in a rapid mixing diode array spectrophotometer.

[6] = true Ki extrapolated to zero dodecyl-maltoside (DM) from plot of Ki(app) vs [DM], 25 °C, pH 7.5, read-out: Inhibition of CcO Oxidase Activity, Ki (DM→0)

Q: With `C=C1CC[C@H](O)C/C1=C/C=C1\CCC[C@]2(C)[C@@H]([C@H](C)CCCC(C)C)CC[C@@H]12` [Cholecalciferol (vitamine D3), Cholecalciferol] as the compound, how does the “Spectral Response Induced in Oxidized CcO” value [1] read?
A: red shift of a3^3+

Q: And the “Magnitude ε of the spectral shift induced in oxidized CcO” value ([1]; 13 mM DM)?
A: 25 mM^−1⋅cm^−1

Q: What about the “Inhibition of CcO Peroxidase Activity” value [2] of the same compound?
A: yes

Q: What about the Ki ([2]; read-out: Ki for inhibition of CcO peroxidase activity) of the same compound?
A: ~200 µM

Q: And the “Inhibition of CcO Oxidase Activity, DM Influence” value (“Inhibition … DM Influence” below) [3]?
A: competes 1:1

Q: What about the Ki [3, 6] of the same compound?
A: 9 µM

Q: For `CCCCCCCCCCCCO[C@@H]1O[C@H](CO)[C@@H](O[C@H]2O[C@H](CO)[C@@H](O)[C@H](O)[C@H]2O)[C@H](O)[C@H]1O` [DM, dodecyl-maltoside], which Kd ([3]; from plot of Ki(app) for estradiol vs [DM], read-out: dissociation constant for DM in the absence of estradiol, Kc) is on record?
A: 1470 µM

Q: And the Kd ([3]; from plot of Ki(app) for testosterone vs [DM], read-out: dissociation constant for DM in the absence of testosterone, Kc)?
A: 1300 µM

Q: And the Kd [4]?
A: 1200 µM

Q: For `C[C@]12CC[C@H](O)CC1=CC[C@@H]1[C@@H]2CC[C@]2(C)C(=O)CC[C@@H]12` [Dehydroepiandrosterone (DHEA), Dehydroepiandrosterone], which “Inhibition of CcO Peroxidase Activity” value [2] is on record?
A: no

Q: And the Ki [3]?
A: 110 µM

Q: What about the “Inhibition … DM Influence” value [3] of the same compound?
A: competes 1:1

Q: With `CC(=O)[C@H]1CC[C@H]2[C@@H]3CCC4=CC(=O)CC[C@]4(C)[C@H]3CC[C@]12C` [Progesterone] as the compound, how does the “Inhibition of CcO Peroxidase Activity” value [2] read?
A: no

Q: What about the “Inhibition … DM Influence” value [3] of the same compound?
A: competes 1:1

Q: What about the Ki [3, 6] of the same compound?
A: 120 µM

Q: What does the source list for `C[C@]12CC[C@H]3[C@@H](CCC4=CC(=O)CC[C@@]43C)[C@@H]1CC[C@@H]2O` [Testosterone]?
A: Spectral Response Induced in Oxidized CcO [1]: no; IC50 (human endothelial cells): 100 µM; effect on the activity of CcO from R. sphaeroides (CcO from R. sphaeroides): did not reveal inhibition; Inhibition of CcO Peroxidase Activity [2]: no; Inhibition of CcO Peroxidase Activity ([2]; listed as testosterone): do not inhibit; Ki [3]: 80 µM; maximal level of inhibition by excess testosterone ([3]; 1 mM DM): ca. 25%; inhibition of CcO oxidase activity ([3]; 4 mM testosterone, 1 mM DM): inhibits the activity but weakly; inhibition of CcO oxidase activity ([3]; 4 mM testosterone, 20 mM DM): strong inhibition; also recorded: does inhibit; Inhibition of CcO Oxidase Activity, DM Influence [3]: competes 1:1; increases maximal level of inhibition; inhibition of CcO oxidase activity directly observed (fold) ([3]; high concentrations of both testosterone and DM (Figure 2A, trace 1: 4 mM testosterone, 20 mM DM)): ≤ 3 fold; slope tangent of Ki(app) vs [DM], ratio Ki:Kc [3]: 0.05; inhibition at 100 µM ([3]; read-out: inhibition of bovine oxidase): 13%

Q: For `C[C@]12CCC(=O)C=C1CC[C@@H]1[C@@H]2CC[C@]2(C)C(=O)CC[C@@H]12` [androstenedione], which IC50 (human endothelial cells) is on record?
A: 375 µM

Q: For `CC(C)CCC[C@@H](C)[C@H]1CC[C@H]2[C@@H]3CC=C4C[C@@H](O)CC[C@]4(C)[C@H]3CC[C@]12C` [cholesterol], which “inhibition of the oxidase activity of the bovine heart enzyme” value ([3]; unpublished data of the authors) is on record?
A: does not inhibit

Q: Which “inhibition of R. sphaeroides CcO” value (R. sphaeroides CcO) does the source give for `C[C@]12CC[C@@H]3c4ccc(OC(=O)c5ccccc5)cc4CC[C@H]3[C@@H]1CC[C@@H]2O` [estradiol-3-benzoate] here?
A: inhibition

Q: What about the “time for the spectral shift to reach completion after hormone addition” value ([1]; 1 mM estradiol, 13 mM DM, oxidized CcO) of the same compound?
A: 3 to 5 min

Q: What about the “magnitude of spectral shift relative to the effect induced by cyanide” value ([1]; 1 mM estradiol, cyanide effect from ref 20) of the same compound?
A: ca. 1/5

Q: And the “Spectral Response Induced in Oxidized CcO” value [1]?
A: red shift of a3^3+

Q: What about the “Magnitude ε of the spectral shift induced in oxidized CcO” value ([1]; 13 mM DM) of the same compound?
A: 10 mM^−1⋅cm^−1

Q: And the “effect on the absorption spectrum of the reduced CcO” value ([1]; reduced CcO)?
A: No effect

Q: What about the “effect on the activity of CcO from R. sphaeroides” value (shortened to “effect on the activity of CcO”) (CcO from R. sphaeroides) of the same compound?
A: did not reveal inhibition

Q: What about the “Inhibition of CcO Peroxidase Activity” value [2] of the same compound?
A: no

Q: And the “Inhibition of CcO Peroxidase Activity” value ([2]; listed as estradiol)?
A: do not inhibit

Q: What about the “inhibition of oxygen consumption (oxidase activity)” value ([3]; 0.5 mM estradiol, 1 mM DM) of the same compound?
A: approximately by half; also recorded: does inhibit

Q: And the “inhibition of CcO oxidase activity (fold)” value ([3]; 2 mM estradiol, 1 mM DM)?
A: ~4 fold

Q: What about the “inhibition of CcO oxidase activity” value ([3]; 2 mM estradiol, 20 mM DM) of the same compound?
A: only a slight inhibition

Q: And the “Inhibition … DM Influence” value [3]?
A: competes 1:1

Q: What about the “slope tangent of Ki(app) vs [DM], ratio Ki:Kc” value [3] of the same compound?
A: 0.25

Q: And the Ki [3, 6]?
A: 370 µM

Q: And the “rate constant of heme a3 reduction, rapid phase” value ([5]; 0.2 mM estradiol, 3 µM CcO, 20 mM dithionite, 5 mM RuAm)?
A: 67.75 s⁻¹

Q: And the “rate constant of heme a3 reduction, slow phase” value ([5]; 0.2 mM estradiol)?
A: 5.3 s⁻¹

Q: What about the “decrease of the rate constants of both phases of heme a3 reduction” value ([5]; 0.5 mM estradiol) of the same compound?
A: ca. 60%

Q: And the “rate constant of heme a3 reduction, slow phase” value ([5]; 0.5 mM estradiol)?
A: 2.5 s⁻¹

Q: What about the “rate constant of heme a3 reduction, rapid phase” value ([5]; 0.5 mM estradiol) of the same compound?
A: 39.6 s⁻¹

Q: For `C[C@]12CC[C@H]3[C@@H](CCC4=CC(=O)CC[C@@H]43)[C@@H]1CC[C@@H]2O` [nandrolone], which IC50 (human endothelial cells) is on record?
A: 9 µM

Q: With `C[C@]12CC[C@H]3[C@@H](CCC4=CC(O)CC[C@@H]43)[C@@H]1CCC2O` (stereo partly shown) [norandrostenediol] as the compound, how does the IC50 (human endothelial cells) read?
A: 6000 µM

Q: For `C[C@]12CC[C@H]3[C@@H](CCC4=CC(=O)CC[C@@H]43)[C@@H]1CCC2=O` [norandrostenedione], which IC50 (human endothelial cells) is on record?
A: 500 µM

Q: With `CC1=C(/C=C/C(C)=C/C=C/C(C)=C/C(=O)O)C(C)(C)CCC1` [retinoic acid] as the compound, how does the “effect on the activity of CcO” value (CcO from R. sphaeroides) read?
A: strongly inhibited

Q: For `N[C@@H](Cc1cc(I)c(Oc2ccc(O)c(I)c2)c(I)c1)C(=O)O` [thyroid hormone T3], which “effect on the activity of CcO” value (CcO from R. sphaeroides) is on record?
A: inhibited the enzyme; also recorded: strongly inhibited
